Results taken from the NIST ThermoML archive (doi:10.1021/acs.jced.8b00921).

Test: xn = mol fraction of the nth substance listed
Settings: Gas, isochoric method

C=CC(F)(F)F [1,1,1-trifluoro-2-propene] + CC(C)C
Settings | specific volume [m3/kg]
303.15 K, 47.6 kPa, x2 = 0.282 | 0.6134
303.15 K, 169.8 kPa, x2 = 0.898 | 0.2302
308.15 K, 48.4 kPa, x2 = 0.282 | 0.6136
308.15 K, 172.8 kPa, x2 = 0.898 | 0.2303
308.15 K, 192.7 kPa, x2 = 0.434 | 0.1611
308.15 K, 289.5 kPa, x2 = 0.225 | 0.0942
313.15 K, 49.2 kPa, x2 = 0.282 | 0.6137
313.15 K, 175.8 kPa, x2 = 0.898 | 0.2303
313.15 K, 196 kPa, x2 = 0.434 | 0.1611
313.15 K, 294.8 kPa, x2 = 0.225 | 0.0943
318.15 K, 50 kPa, x2 = 0.282 | 0.6139
318.15 K, 178.7 kPa, x2 = 0.898 | 0.2304
318.15 K, 199.4 kPa, x2 = 0.434 | 0.1611
318.15 K, 300.1 kPa, x2 = 0.225 | 0.0943
323.15 K, 50.8 kPa, x2 = 0.282 | 0.614
323.15 K, 181.7 kPa, x2 = 0.898 | 0.2304
323.15 K, 202.4 kPa, x2 = 0.434 | 0.1612
323.15 K, 305.3 kPa, x2 = 0.225 | 0.0943
328.15 K, 51.6 kPa, x2 = 0.282 | 0.6141
328.15 K, 184.7 kPa, x2 = 0.898 | 0.2305
328.15 K, 205.9 kPa, x2 = 0.434 | 0.1612
328.15 K, 310.5 kPa, x2 = 0.225 | 0.0943
333.15 K, 52.4 kPa, x2 = 0.282 | 0.6143
333.15 K, 187.6 kPa, x2 = 0.898 | 0.2305
333.15 K, 209.4 kPa, x2 = 0.434 | 0.1613
333.15 K, 315.8 kPa, x2 = 0.225 | 0.0943
338.15 K, 53.2 kPa, x2 = 0.282 | 0.6144
338.15 K, 190.4 kPa, x2 = 0.898 | 0.2306
338.15 K, 212 kPa, x2 = 0.434 | 0.1613
338.15 K, 320.9 kPa, x2 = 0.225 | 0.0944
343.15 K, 54 kPa, x2 = 0.282 | 0.6145
343.15 K, 193.4 kPa, x2 = 0.898 | 0.2306
343.15 K, 215.5 kPa, x2 = 0.434 | 0.1613
343.15 K, 326.1 kPa, x2 = 0.225 | 0.0944
348.15 K, 54.8 kPa, x2 = 0.282 | 0.6147
348.15 K, 196.3 kPa, x2 = 0.898 | 0.2307
348.15 K, 218.9 kPa, x2 = 0.434 | 0.1614
348.15 K, 331.3 kPa, x2 = 0.225 | 0.0944
353.15 K, 55.6 kPa, x2 = 0.282 | 0.6148
353.15 K, 199.4 kPa, x2 = 0.898 | 0.2307
353.15 K, 222.4 kPa, x2 = 0.434 | 0.1614
353.15 K, 336.5 kPa, x2 = 0.225 | 0.0944
358.15 K, 56.4 kPa, x2 = 0.282 | 0.6149
358.15 K, 202.3 kPa, x2 = 0.898 | 0.2308
358.15 K, 225 kPa, x2 = 0.434 | 0.1614
358.15 K, 341.6 kPa, x2 = 0.225 | 0.0944
363.15 K, 57.2 kPa, x2 = 0.282 | 0.6151
363.15 K, 205.3 kPa, x2 = 0.898 | 0.2308
363.15 K, 228.5 kPa, x2 = 0.434 | 0.1615
363.15 K, 346.8 kPa, x2 = 0.225 | 0.0945
368.15 K, 58.1 kPa, x2 = 0.282 | 0.6152
368.15 K, 208.1 kPa, x2 = 0.898 | 0.2309
368.15 K, 231.9 kPa, x2 = 0.434 | 0.1615
368.15 K, 351.9 kPa, x2 = 0.225 | 0.0945
373.15 K, 58.8 kPa, x2 = 0.282 | 0.6153
373.15 K, 211.1 kPa, x2 = 0.898 | 0.2309
373.15 K, 235.2 kPa, x2 = 0.434 | 0.1615
373.15 K, 357.1 kPa, x2 = 0.225 | 0.0945
378.15 K, 59.7 kPa, x2 = 0.282 | 0.6155
378.15 K, 213.4 kPa, x2 = 0.898 | 0.231
378.15 K, 236.9 kPa, x2 = 0.434 | 0.1616
378.15 K, 362.3 kPa, x2 = 0.225 | 0.0945
383.15 K, 60.5 kPa, x2 = 0.282 | 0.6156
383.15 K, 217.1 kPa, x2 = 0.898 | 0.231
383.15 K, 240.1 kPa, x2 = 0.434 | 0.1616
383.15 K, 367.5 kPa, x2 = 0.225 | 0.0946

F/C=C(\F)C(F)(F)F [(Z)-1,2,3,3,3-pentafluoro-1-propene] + CC(C)C
Settings | specific volume [m3/kg]
303.15 K, 207 kPa, x2 = 0.504 | 0.1216
308.15 K, 210.7 kPa, x2 = 0.504 | 0.1216
308.15 K, 303.6 kPa, x2 = 0.797 | 0.1074
308.15 K, 309.8 kPa, x2 = 0.345 | 0.0717
308.15 K, 316 kPa, x2 = 0.175 | 0.0632
308.15 K, 394.7 kPa, x2 = 0.916 | 0.0901
308.15 K, 410.6 kPa, x2 = 0.477 | 0.0585
313.15 K, 214.4 kPa, x2 = 0.504 | 0.1216
313.15 K, 309.3 kPa, x2 = 0.797 | 0.1074
313.15 K, 315.5 kPa, x2 = 0.345 | 0.0717
313.15 K, 321.9 kPa, x2 = 0.175 | 0.0632
313.15 K, 402.8 kPa, x2 = 0.916 | 0.0901
313.15 K, 418.8 kPa, x2 = 0.477 | 0.0585
318.15 K, 218 kPa, x2 = 0.504 | 0.1217
318.15 K, 315 kPa, x2 = 0.797 | 0.1074
318.15 K, 321.3 kPa, x2 = 0.345 | 0.0717
318.15 K, 327.8 kPa, x2 = 0.175 | 0.0633
318.15 K, 410.7 kPa, x2 = 0.916 | 0.0901
318.15 K, 426.9 kPa, x2 = 0.477 | 0.0585
323.15 K, 221.7 kPa, x2 = 0.504 | 0.1217
323.15 K, 320.6 kPa, x2 = 0.797 | 0.1074
323.15 K, 327 kPa, x2 = 0.345 | 0.0717
323.15 K, 333.7 kPa, x2 = 0.175 | 0.0633
323.15 K, 418.5 kPa, x2 = 0.916 | 0.0901
323.15 K, 434.9 kPa, x2 = 0.477 | 0.0585
328.15 K, 225.3 kPa, x2 = 0.504 | 0.1217
328.15 K, 326.2 kPa, x2 = 0.797 | 0.1075
328.15 K, 332.9 kPa, x2 = 0.345 | 0.0718
328.15 K, 339.5 kPa, x2 = 0.175 | 0.0633
328.15 K, 426.4 kPa, x2 = 0.916 | 0.0902
328.15 K, 442.8 kPa, x2 = 0.477 | 0.0586
333.15 K, 229 kPa, x2 = 0.504 | 0.1217
333.15 K, 331.8 kPa, x2 = 0.797 | 0.1075
333.15 K, 338.6 kPa, x2 = 0.345 | 0.0718
333.15 K, 346.4 kPa, x2 = 0.175 | 0.0633
333.15 K, 434 kPa, x2 = 0.916 | 0.0902
333.15 K, 450.8 kPa, x2 = 0.477 | 0.0586
338.15 K, 232.6 kPa, x2 = 0.504 | 0.1218
338.15 K, 337.4 kPa, x2 = 0.797 | 0.1075
338.15 K, 344.2 kPa, x2 = 0.345 | 0.0718
338.15 K, 351.2 kPa, x2 = 0.175 | 0.0633
338.15 K, 441.7 kPa, x2 = 0.916 | 0.0902
338.15 K, 458.7 kPa, x2 = 0.477 | 0.0586
343.15 K, 236.3 kPa, x2 = 0.504 | 0.1218
343.15 K, 342.9 kPa, x2 = 0.797 | 0.1075
343.15 K, 349.8 kPa, x2 = 0.345 | 0.0718
343.15 K, 357 kPa, x2 = 0.175 | 0.0633
343.15 K, 449.4 kPa, x2 = 0.916 | 0.0902
343.15 K, 466.6 kPa, x2 = 0.477 | 0.0586
348.15 K, 239.9 kPa, x2 = 0.504 | 0.1218
348.15 K, 348.5 kPa, x2 = 0.797 | 0.1076
348.15 K, 355.4 kPa, x2 = 0.345 | 0.0718
348.15 K, 362.8 kPa, x2 = 0.175 | 0.0633
348.15 K, 457 kPa, x2 = 0.916 | 0.0902
348.15 K, 474.5 kPa, x2 = 0.477 | 0.0586
353.15 K, 243.6 kPa, x2 = 0.504 | 0.1218
353.15 K, 354.1 kPa, x2 = 0.797 | 0.1076
353.15 K, 361 kPa, x2 = 0.345 | 0.0718
353.15 K, 368.6 kPa, x2 = 0.175 | 0.0634
353.15 K, 464.6 kPa, x2 = 0.916 | 0.0903
353.15 K, 482.3 kPa, x2 = 0.477 | 0.0586
358.15 K, 247.3 kPa, x2 = 0.504 | 0.1219
358.15 K, 359.6 kPa, x2 = 0.797 | 0.1076
358.15 K, 366.6 kPa, x2 = 0.345 | 0.0719
358.15 K, 374.3 kPa, x2 = 0.175 | 0.0634
358.15 K, 472.2 kPa, x2 = 0.916 | 0.0903
358.15 K, 490.2 kPa, x2 = 0.477 | 0.0586
363.15 K, 251 kPa, x2 = 0.504 | 0.1219
363.15 K, 365.1 kPa, x2 = 0.797 | 0.1076
363.15 K, 372.2 kPa, x2 = 0.345 | 0.0719
363.15 K, 380.1 kPa, x2 = 0.175 | 0.0634
363.15 K, 479.8 kPa, x2 = 0.916 | 0.0903
363.15 K, 497.9 kPa, x2 = 0.477 | 0.0586
368.15 K, 254.6 kPa, x2 = 0.504 | 0.1219
368.15 K, 370.4 kPa, x2 = 0.797 | 0.1077
368.15 K, 377.8 kPa, x2 = 0.345 | 0.0719
368.15 K, 385.9 kPa, x2 = 0.175 | 0.0634
368.15 K, 487.3 kPa, x2 = 0.916 | 0.0903
368.15 K, 505.7 kPa, x2 = 0.477 | 0.0587
373.15 K, 258.3 kPa, x2 = 0.504 | 0.122
373.15 K, 375.9 kPa, x2 = 0.797 | 0.1077
373.15 K, 383.4 kPa, x2 = 0.345 | 0.0719
373.15 K, 391.6 kPa, x2 = 0.175 | 0.0634
373.15 K, 494.9 kPa, x2 = 0.916 | 0.0903
373.15 K, 513.5 kPa, x2 = 0.477 | 0.0587
378.15 K, 262 kPa, x2 = 0.504 | 0.122
378.15 K, 381.6 kPa, x2 = 0.797 | 0.1077
378.15 K, 389 kPa, x2 = 0.345 | 0.0719
378.15 K, 397.3 kPa, x2 = 0.175 | 0.0634
378.15 K, 502.4 kPa, x2 = 0.916 | 0.0904
378.15 K, 521.3 kPa, x2 = 0.477 | 0.0587
383.15 K, 265.6 kPa, x2 = 0.504 | 0.122
383.15 K, 387 kPa, x2 = 0.797 | 0.1077
383.15 K, 394.6 kPa, x2 = 0.345 | 0.0719
383.15 K, 403.1 kPa, x2 = 0.175 | 0.0634
383.15 K, 509.9 kPa, x2 = 0.916 | 0.0904
383.15 K, 529 kPa, x2 = 0.477 | 0.0587
